One block for each compound: values may come before it.
Key:
[1] = PpIX concentration in plasma after topical application in mice (Example 5); type: in vivo, mouse; settings: 20 hr after topical application of 20% cream
Procedure: A cream was prepared using 20% (wt/wt) ALA, ALA-Me or ALA-Hex in an ointment (Unguentum, Merck, Darmstadt, Germany). Approximately 0.2 mg of the freshly prepared cream was applied on a single spot of 1 cm diameter on normal skin of each mouse. An adhesive dressing (OpSite Flexigrid, Smith and Nephew Medical, LTD, Hull, England) with a punched hole of 1 cm in diameter was first put on the skin. Then the cream was applied on the skin in the punched hole and covered with another similar dressing. 20 hours application time was used.
Female Balb/c athymic nude mice were obtained from Bomholt Gaard (Ry, Denmark). At the start of each experiment, they were 7-8 weeks old and weighed 18-25 g. Three mice were housed per cage with autoclaved filter covers in a room with subdued light at constant temperature (24-26° C.) and humidity (30-50%). Food and bedding were sterilized and the mice were given tap water ad libitum in sterilized bottles. For proper application of the cream, anaesthesia, hypnorm dormicum (approximately 4 ml/kg body weight), was i.p. injected into the mice.
Immediately after mice were killed, whole blood was drawn directly from the right atrium of the heart. The total volume of blood obtained from each mouse was approximately 0.2 ml and was selected in EDTA-treated micro-tubes. The red blood cells were fluorimetrically determined as described above.

[2] = test system: Balb/c athymic nude mice; experiment: Tissue distribution of PpIX fluorescence after topical application in mice (Example 5); type: in vivo, mouse; settings: 20% cream topical, compared to ALA methyl ester
Procedure: ALA, ALA methyl ester and ALA hexyl ester containing cream was applied locally on the skin surface of hairless mice. Fluorescence intensities were used as indications of the concentration of PpIX on the application site (skin), in remote skin spots, in liver, intestine, lungs, muscle and brain and plasma.
A cream was prepared using 20% (wt/wt) ALA, ALA-Me or ALA-Hex in an ointment (Unguentum, Merck, Darmstadt, Germany). Approximately 0.2 mg of the freshly prepared cream was applied on a single spot of 1 cm diameter on normal skin of each mouse. An adhesive dressing (OpSite Flexigrid, Smith and Nephew Medical, LTD, Hull, England) with a punched hole of 1 cm in diameter was first put on the skin. Then the cream was applied on the skin in the punched hole and covered with another similar dressing. […]
Female Balb/c athymic nude mice were obtained from Bomholt Gaard (Ry, Denmark). At the start of each experiment, they were 7-8 weeks old and weighed 18-25 g. Three mice were housed per cage with autoclaved filter covers in a room with subdued light at constant temperature (24-26° C.) and humidity (30-50%). […]
The method for determining the amounts of PpIX in tissues was described previously (Ma et al., 1998). […] Levels of PpIX in the supernatants were quantitatively determined by recording fluorescence emission spectra of the samples using a Perkin-Elmer (Norwalk, Conn.) LS 50B spectrofluorimeter. […]

[3] = test system: naked mice; settings: topical ALA, simulated solar UV radiation; cited from earlier work
[4] = test system: human skin; experiment: Erythema and pigmentation on human forearm after topical cream and black light (Example 4, Experiment B); type: in vivo; settings: for erythema: high doses: drug 20%, light 3 min, cream applied 4 hours
Procedure: ALA and ALA derivatives in cream was applied to different areas on the forearm of a person. Four hours afterwards the cream was removed and the arm was exposed to black light, 380 nm, for 1-5 min. The skin of the arm was examined for two weeks.

[5] = test system: forearm skin of a person; experiment: Erythema and PpIX fluorescence on forearm skin after topical cream and UVA light (Example 7); type: in vivo, human; settings: for content of PpIX produced in the skin areas (fluorescence emission spectra): 20% cream on forearm; for erythema: 20% cream, UVA black light 5 min two hours after application, observed 24 hours later
Procedure: A cream (Unguentum, Merck) containing 20% ALA, ALA butyl ester and ALA hexyl ester respectively, was applied on three separate areas on the skin of the forearm of a person. Two hours later the skin areas were exposed to UVA light from a black light lamp for 5 min.
The content of PpIX produced in the skin areas was assessed by measuring the fluorescence emission spectra.

[6] = test system: skin of nude BALB/c mice; experiment: Localization of PpIX fluorescence on skin of nude mice under UV lamp (Example 6)
[7] = test system: human skin; experiment: Erythema on human hands after topical cream and blacklight exposure (Example 2); type: in vivo; settings: 20% in Unguentum Merck cream, 5 hours on hands, blacklight 350-400 nm for 5 min or 1 min
Procedure: A high concentration of ALA and ALA-methyl ester (20%, Sigma) in a cream (Unguentum Merck) was applied to a circular area of 1 cm diameter for 5 hours on both hands of a person, FIGS. 1(A, B). A means ALA, M means ALA-methyl ester. The areas of application are shown by the dotted circles on the figure. The cream with the drugs were carefully washed away and the areas were exposed to ordinary blacklight from a fluorescence tube. The wavelengths of the light fall within the region 350-400 nm, FIG. 2. An exposure of 5 minutes was given to the left hand and an exposure of 1 minute was given to the right hand.

[8] = test system: SKH1 hairless mouse; experiment: Prevention of UV-induced skin cancer by multiple topical ALA-Me PDT sessions (Example 8); type: in vivo
Procedure: The ability of multiple photodynamic therapy (PDT) sessions with topical ALA methylester (ALA-Me) to prevent skin cancer induced by ultraviolet radiation (UV) was studied in the SKH1 hairless mouse. Groups of 20 mice were exposed 5 days per week to UV from FS20 tubes. One group was treated weekly with 8% topical ALA-Me followed 2 hours later by 1.2 J/cm^2 of light from a slide projector, The number, location, and size of skin tumors were registered weekly. Other study groups included: mice treated with 8% ALA-Me and not exposed to light, mice exposed to UV and vehicle, mice exposed to topical ALA-Me and light but not UV, as well as mice exposed to UV with half of their bodies treated with 8% ALA-Me and half of their bodies treated with the vehicle. […] After 26 weeks of UV exposure large tumors (≧4 mm) were present in 14 mice of the UV group as compared to only one mouse in the UV-ALA-Me group.

[9] = test system: skin of C3H/Tif hairless mice; experiment: Pigmentation of hairless mouse skin after topical drug and red laser light (Example 4, Experiment A); type: in vivo
Procedure: One hour after the application, the mice were exposed to light for 1 min (red laser light, 100 m/Wcm^2, 633 nm). […] The treatment was repeated 10 times within 2 weeks.

erythema [4]: led to erythema
erythema [5]: significant pronounced erythema
localization of protoporphyrin IX (PpIX) fluorescence ([6]; 20% cream, photos under UV lamp after 8 hours): localized all over the skin
site of PpIX production after application on the skin of mice (summary statement) ([6]; applied on the skin of mice): induces PpIX in the whole mouse
SMILES: NCC(=O)CCC(=O)O [ALA, 5-aminolevulinic acid]
concentration in plasma [1]: higher than both ALA methylester and ALA hexylester
PpIX outside the application site ([2]; 5 hrs application time): significally more PpIX outside the application site
PpIX outside the application site ([2]; 20 hrs application time): significally more PpIX outside the application site
UV induction of skin cancer [3]: photo-induced carcinogenesis was delayed
skin reaction of exposed areas [3]: erythematous
pigmentation ([4]; 20% ALA, 1 min light (slightly erythemogenic), 2 weeks after light exposure): led to later pigmentation
pigmentation (melanogenesis) ([4]; one week after a low dose single nonerythemogenic treatment): clearly visible pigmentation (melanogenesis)
content of PpIX produced in the skin areas (fluorescence emission spectra) [5]: highest concentration of PpIX
erythema spreading out from the area of application [7]: circular, covering both the upper and the lower part of the hand

erythema [5]: significant but weaker erythema
SMILES: CCCCCCOC(=O)CCC(=O)CN [ALA hexyl ester, 5-aminolevulinic acid hexyl ester]
content of PpIX produced in the skin areas (fluorescence emission spectra) [5]: smallest

SMILES: COC(=O)CCC(=O)CN [ALA methyl ester, 5-aminolevulinic acid methyl ester]
erythema [4]: led to erythema
delay in tumor appearance, half body ALA-Me and half body vehicle ([8]; UV-exposed mice treated on one side with 8% ALA-Me, other side vehicle): observed only on the side treated with ALA-Me
number of mice with large tumors (≧4 mm) ([8]; after 26 weeks of UV exposure, groups of 20 mice): one
protoporphyrin IX accumulation in tumors versus adjacent UV exposed skin and normal skin ([8]; in vivo fluorescence spectroscopy and fluorescence microscopy at the time of light exposure): preferential accumulation of protoporhyrin IX in tumors
mortality or morbidity ([8]; topical ALA-Me-PDT): without increasing mortality or morbidity
time when the first tumor appeared ([8]; weekly 8% topical ALA-Me plus 1.2 J/cm^2 light, compared to mice only exposed to UV): significant delay
skin pigmentation ([9]; 1% cream, 1 min red laser light, repeated 10 times within 2 weeks): gradually pigmented
erythema ([9]; 1% in Unguentum Merck cream, light 1 min (633 nm) one hour after application): No erythema was observed
erythema spreading out from the area of application [7]: only in a half-circle in the upper part of the hand

erythema [5]: significant but weaker erythema
SMILES: CCCCOC(=O)CCC(=O)CN [ALA butyl ester]
content of PpIX produced in the skin areas (fluorescence emission spectra) [5]: smaller
